Measured values from patent US20260130885A1, “ANTIMICROBIAL COMPOSITIONS, PHARMACEUTICAL COMPOSITIONS AND USE THEREOF” (priority 2022, published 2026).

Columns and labels:
[1] = test system: MRSA USA300 persister cells; experiment: Persister killing assay; assay type: cell-based, Staphylococcus aureus; conditions: 16×MIC, 16 mg/L; FIG. 1
Method: (§1) The number of viable bacteria in broth after each exposure period was enumerated by a cfu assay and expressed as cfu/mL; the data shown are the mean±SD (standard deviation) of independent experiments. […] The number of viable bacteria in the broth after each exposure period was calculated by a cfu assay (cfu/mL); the data are shown as the mean±SD of three independent experiments (n=3 for each group). Since the standard deviation of each point is very small, the error line is not shown in each graph. The horizontal dashed line in the upper left graph and the upper right graph represents […] of the bacterial cells killed. In addition, the blank controls in FIG. 1 are shown as filled diamonds.
(§2) Bacteria were collected by centrifugation at 4000×g for 10 min at 4° C., washed with ice-cold PBS, and suspended in PBS with test agents. Controls received DMSO and ethanol vehicles at concentrations equal to those for drug-treated bacteria. At the designated times, the number of viable bacteria was assessed by serial dilution of a 100 μL aliquot bacterial suspension in PBS and then spread onto LB agar plates. After incubation at 37° C. for 18-24 hours, the number of colonies was counted and expressed as cfu/mL.

[2] = test system: S. aureus NCTC8325 persister cells; experiment: Persister killing assay; assay type: cell-based, Staphylococcus aureus; conditions: 16×MIC, 16 mg/L; FIG. 1
Method: as §1, §2

CN[C@H](CC(C)C)C(=O)N[C@H]1C(=O)N[C@@H](CC(N)=O)C(=O)N[C@H]2C(=O)N[C@H]3C(=O)N[C@H](C(=O)N[C@H](C(=O)O)c4cc(O)cc(O)c4-c4cc3ccc4O)[C@H](O)c3ccc(c(Cl)c3)Oc3cc2cc(c3O[C@@H]2O[C@H](CO)[C@@H](O)[C@H](O)[C@H]2O[C@H]2C[C@](C)(N)[C@H](O)[C@H](C)O2)Oc2ccc(cc2Cl)[C@H]1O [vancomycin, reference compound]
killing of persister cells (in words) [1]: resistant to the killing activity
killing of persister cells (in words) [2]: resistant to the killing activity
